# Source: US20200022965A1, “PHARMACEUTICAL COMPOSITION FOR CANCER TREATMENT AND USE THEREOF” (priority 2016, published 2020)
# Key:
# [1] = cited from earlier work; for oral absorption: taken orally
# [2] = test system: colonic cancer cells HCT116; assay: HCT116 colonic cancer xenograft in nude mice, two weeks of drug delivery (Embodiment 1): cancer volume and weight; format: in vivo; settings: HCT116, ig, within 2 weeks, vs solvent group, FIG. 1-3
# Excerpt: Nude mice were transplanted with colonic cancer cells HCT116; after the cancer volumes reached 200-300 mm3, the mice were randomly grouped, 8 pieces in each group; the mice were fed with drugs for two weeks. The drug delivery solution can be seen in Table 2 below: […]
# [3] = test system: dihydropyrimidine dehydrogenase (DPD); settings: cited from earlier work
# [4] = cited from earlier work
smiles,measurement,setting,value
"O=c1[nH]cc(F)c(=O)[nH]1 [5-Fluorouracil (5-FU), 5-Fluorouracil]",t1/2,[1]; in vivo,"absorption t1/210~20 min,"
same,oral absorption,[1],Incomplete oral
"CCCCCOC(=O)Nc1nc(=O)n([C@@H]2O[C@H](C)[C@@H](O)[C@H]2O)cc1F [Capecitabine, 5′-deoxy-5-fluoro-N[(pentyloxy)carbonyl]cytidine]",5-FU concentration in the cancer tissues versus that in the blood,[1]; after the drug is taken orally,is 100 times higher
same,t1/2,[1]; in vivo,orally. t1/2 0.5~1.0 h.
same,oral absorption,[1],Quickly absorbed by
same,volume and weight of the cancer,[2],failed to reduce the volume and weight of the cancer
"Oc1cc(O)c(Cl)cn1 [Gimeracil (CDHP), 2,4-dyhydroxy-5-chloro pyridine]",5-FU degradation inhibition effect relative to uracil,[3],180 times that of the uracil
same,DPD inhibiting effect relative to uracil,[3]; reversible inhibitor of the DPD,180 times that of uracil
same,anti-cancer activities when individually used,[4],no obvious anti-cancer activities
"O=C(O)c1nc(=O)[nH]c(=O)[nH]1 [Oteracil potassium (OXO), Oteracil potassium]",anti-cancer activities when individually used,[4],no obvious anti-cancer activities
"O=c1[nH]c(=O)n(C2CCCO2)cc1F (centres unmarked) [Tegafur (FT-207), 1-(etrahydro-2-furyl)-5-fluoro-2,4(1H,3H)-pyrimidinedione]",lipid solubility,[1]; in vivo,tract. It has higher
same,t1/2,[1]; in vivo,absorption t1/25 h.
same,oral absorption,[1],Good oral
same,discharged in the original form along with the urine,[1]; within 24 h after drug delivery,23% is discharged
